{"source": "patent US11576866B2", "about": "“Gastric residence systems for sustained delivery of adamantane-class drugs” (Lyndra Therapeutics, Inc., priority 2016, dated 2023)", "key": {"[1]": {"experiment": "PCL/SGF partition coefficient", "assay_type": "physicochemical", "conditions": "5:1 PCL diol (MW 530):ethyl acetate vs FaSSGF", "text": "Partitioning behavior of an adamantane-class drug can be measured between a polycaprolactone phase (PCL phase) and a simulated gastric fluid phase (SGF phase), to give the partition coefficient PPCL-SGF between the two phases. Log PPCL-SGF can also be calculated. A 5:1 mixture of polycaprolactone diol (MW 530):ethyl acetate can be used as the PCL phase, and fasted-state simulated gastric fluid (FaSSGF) can be used as the SGF phase, such that PPCL-SGF=(concentration in polycaprolactone diol)/(concentration in FaSSGF)).\nPartitioning of active pharmaceutical ingredient (API), such as an adamantane-class drug such as memantine, between the structural polymer, polycaprolactone (PCL), and fasted state simulated gastric fluid (FaSSGF) is of interest for predicting API release rate from PCL-based formulations. To measure the PCL-SGF partition coefficient of an API, a concentrated stock solution of API was added to a mixture of 1 mL FaSSGF and 1 mL of 5:1 PCL diol (MW 530):ethyl acetate. The sample was vortexed and centrifuged at 10000 rpm for 5 minutes. The SGF phase was analyzed by HPLC to measure drug concentration. The PCL phase was diluted in methanol prior to quantification on HPLC."}, "[2]": {"experiment": "Thermal stability of memantine during hot melt processing", "assay_type": "physicochemical", "conditions": "blended with polymer (20% drug, 2% P407, 20% Eudragit RS, PCL); up to 160° C. for up to 20 minutes", "experimental": "The stability of memantine under conditions of hot melt processing was tested. The formulation used for hot melt processing was 20% drug, 0.5% SiO2, 0.5% alpha tocopherol, 2% P407, 20% Eudragit RS, with the balance of material made up of PCL."}, "[3]": {"experiment": "Therapeutic plasma concentrations of memantine (literature)", "assay_type": "in vivo", "conditions": "conversion of 1 micromolar", "experimental": "The maximum therapeutically relevant concentration of memantine is approximately 1 micromolar (Rammes et al., Curr. Neuropharmacol. 6(1): 55-78 (2008)), corresponding to a plasma level of about 180 ng/mL. A recommended therapeutic range is about 90 ng/mL to 150 ng/mL, while the laboratory alert value is 300 ng/mL (Hiemke et al., Pharmacopsychiatry 44:195 (2011))."}, "[4]": {"conditions": "dog, one compartment model; assumed input of the analysis; cited from earlier work"}, "[5]": {"conditions": "human; input parameter of simulation; cited from earlier work"}, "[6]": {"conditions": "cited from earlier work"}}, "data": [{"compound": "CC12CC3CC(C)(C1)CC(N)(C3)C2", "note": "[memantine]", "values": [{"measurement": "PCL/SGF Partition Coefficient", "setting": "[1]", "value": 0.28}, {"measurement": "degradation during hot melt processing", "setting": "[2]", "value": "without significant degradation"}, {"measurement": "plasma level corresponding to maximum therapeutically relevant concentration", "setting": "[3]", "value": "about 180 ng/mL"}, {"measurement": "elimination rate constant (ke)", "setting": "[4]", "value": 0.076, "unit": "h⁻¹"}, {"measurement": "clearance (CL)", "setting": "[5]", "value": 5.2, "unit": "L/h"}, {"measurement": "mean volume of distribution", "setting": "[5]", "value": "9 to 11", "unit": "L/kg"}, {"measurement": "rate of absorption (Ka)", "setting": "[5]", "value": 0.21, "unit": "h⁻¹"}, {"measurement": "laboratory alert value (plasma)", "setting": "[6]; Hiemke et al. 2011", "value": 300, "unit": "ng/mL"}, {"measurement": "maximum therapeutically relevant concentration", "setting": "[6]; Rammes et al. 2008", "value": "approximately 1 micromolar"}]}]}
